Values after ≈ are worked out from the molar mass of the structure shown. Like-named read-outs stand apart in the source and are kept apart here.
Experiments:
Assay type in all cases: cell-based
[1] = system: Staphylococcus aureus (ATCC29213); experiment: In-vitro anti-bacterial microtitre plate assay, IC90 determination, Staphylococcus aureus; settings: for IC90: read-out: IC90 STA 29213
Method: (§1) D.3. In-Vitro Method for Testing Compounds for Anti-Bacterial Activity Against Various Non-Mycobacterial Strains […] The bacteria used in this study were grown overnight in flasks containing 100 ml Mueller-Hinton Broth (Becton Dickinson-cat. no. 275730) in sterile de-ionized water, with shaking, at 37° C. Stocks (0.5 ml/tube) were stored at -70° C. until use. Bacteria titrations were performed in microtiter plates to detect the TCID50, in which the TCID50 represents the dilution that gives rise to bacterial growth in 50% of inoculated cultures. In general, an inoculum level of approximately 100 TCID50 was used for susceptibility testing. Anti Bacterial Susceptibility Testing: IC90 Determination Microtitre Plate Assay […] Depending on the bacteria type, approximately 10 to 60 CFU per well of bacteria inoculum (100 TCID50), in a volume of 100 μl in 2.8× Mueller-Hinton broth medium, was added to the rows […]. The same volume of broth medium without inoculum was added to column 12 in row A to H. The cultures were incubated at 37° C. for 24 hours under a normal atmosphere (incubator with open air valve and continuous ventilation). At the end of incubation, one day after inoculation, the bacterial growth was quantitated fluorometrically. Therefore resazurin (0.6 mg/ml) was added in a volume of 20 μl to all wells 3 hours after inoculation, and the plates were re-incubated overnight. A change in colour from blue to pink indicated the growth of bacteria. The fluorescence was read in a computer-controlled fluorometer (Cytofluor Biosearch) at an excitation wavelength of 530 nm and an emission wavelength of 590 nm. The % growth inhibition achieved by the compounds was calculated according to standard methods.

[2] = system: Streptococcus pneumoniae (ATCC6305); experiment: In-vitro anti-bacterial microtitre plate assay, IC90 determination, Streptococcus pneumoniae; settings: for IC90: read-out: IC90 SPN 6305
Method: as §1

M. Smegmatis (ATCC607) = experiment: In-vitro anti-bacterial activity against strain M. Smegmatis ATCC607; settings: for IC90: Mycolicibacterium smegmatis, read-out: IC90 MSM ATCC607
Method: D.2. In-Vitro Method for Testing Compounds for Anti-Bacterial Activity Against Strain M. Smegmatis ATCC607. Flat-bottom, sterile 96-well plastic microtiter plates were filled with 180 μl of sterile deionized water, supplemented with 0.25% BSA. […] Serial five-fold dilutions (45 μl in 180 μl) were made directly in the microtiter plates from column 2 to 11 using a customised robot system (Zymark Corp., Hopkinton, Mass.). Pipette tips were changed after every 3 dilutions to minimize pipetting errors with high hydrophobic compounds. […] Approximately 250 CFU per well of bacteria inoculum, in a volume of 100 μl in 2.8× Mueller-Hinton broth medium, was added to the rows […]. The same volume of broth medium without inoculum was added to column 12 in row A to H. The cultures were incubated at 37° C. for 48 hours in a humidified 5% CO2 atmosphere (incubator with open air valve and continuous ventilation). At the end of incubation, two days after inoculation, the bacterial growth was quantitated fluorometrically. Therefore Alamar Blue (10×) was added to all wells in a volume of 20 μl and plates were incubated for another 2 hours at […] The fluorescence was read in a computer-controlled fluorometer (Cytofluor, Biosearch) at an excitation wavelength of 530 nm and an emission wavelength of 590 nm (gain 30).

[3] = 90% inhibitory concentration for bacterial growth, Staphylococcus aureus ATCC29213, 24 hours, resazurin fluorescence
[4] = 90% inhibitory concentration for bacterial growth, Streptococcus pneumoniae ATCC6305, 24 hours, resazurin fluorescence
[5] = 90% inhibitory concentration for bacterial growth, M. Smegmatis ATCC607, 48 hours, Alamar Blue fluorescence

Compound | IC90 STA 29213 [1, 3] | IC90 SPN 6305 [2, 4] | IC90 MSM ATCC607 (M. Smegmatis (ATCC607); [5]) | further results
COc1nc2ccc(-c3cccnc3)cc2cc1C(O)(CCCCCN(C)C)c1cccc2ccccc12 (stereo not drawn) [Compound 18] | 8.01 µg/mL (≈ 15.8 µM) | 8.99 µg/mL (≈ 17.8 µM) | 8.01 µg/mL (≈ 15.8 µM) | –
COc1nc2ccc(-c3cccs3)cc2cc1C(O)(CCCN(C)C)c1cccc2ccccc12 (stereo not drawn) [Compound 13] | 1.53 µg/mL (≈ 3.17 µM) | 1.71 µg/mL (≈ 3.54 µM) | 1.53 µg/mL (≈ 3.17 µM) | –
COc1nc2ccc(-c3cc4ccccc4o3)cc2cc1C(O)(CCCN(C)C)c1cccc2ccccc12 (stereo not drawn) [Compound 19] | 3.66 µg/mL (≈ 7.08 µM) | 8.19 µg/mL (≈ 15.9 µM) | 3.26 µg/mL (≈ 6.31 µM) | –
COc1nc2ccc(-c3cccs3)cc2cc1C(O)(CCCCN(C)C)c1cccc2ccccc12 (stereo not drawn) [Compound 14] | 39.45 µg/mL (≈ 79.4 µM) | 49.67 µg/mL (≈ 100 µM) | 15.71 µg/mL (≈ 31.6 µM) | –
COc1nc2ccc(-c3ccccc3)cc2cc1C(O)(CCCN(C)C)c1cccc2ccccc12 (stereo not drawn) [Compound 4] | – | – | – | IC90 ([1]; Staphylococcus aureus, ATCC29213, 24 h): 1.51 µg/mL (≈ 3.17 µM); IC90 ([2]; Streptococcus pneumoniae, ATCC6305, 24 h): 1.51 µg/mL (≈ 3.17 µM); IC90 (M. Smegmatis (ATCC607); ATCC607, 48 h): 1.51 µg/mL (≈ 3.17 µM)
COc1nc2ccc(-c3cc4ccccc4o3)cc2cc1C(O)(CCCCCN(C)C)c1cccc2ccccc12 (stereo not drawn) [Compound 20] | 1.72 µg/mL (≈ 3.16 µM) | 1.72 µg/mL (≈ 3.16 µM) | 1.72 µg/mL (≈ 3.16 µM) | –
COc1nc2ccc(Br)cc2cc1C(O)(CCCCN(C)C)c1cccc2ccccc12 (stereo not drawn) [Compound 2] | 39.20 µg/mL (≈ 79.4 µM) | 9.85 µg/mL (≈ 20 µM) | 7.82 µg/mL (≈ 15.8 µM) | –
COc1nc2ccc(Br)cc2cc1C(O)(CCCN(C)C)c1cccc2ccccc12 (stereo not drawn) [Compound 1] | – | – | – | IC90 [1, 3]: 7.6 µg/mL (≈ 15.9 µM); IC90 [2, 4]: 8.53 µg/mL (≈ 17.8 µM); IC90 (M. Smegmatis (ATCC607); [5]): 1.91 µg/mL (≈ 3.98 µM)
COc1nc2ccc(-c3cccnc3)cc2cc1C(O)(CCCN(C)C)c1cccc2ccccc12 (stereo not drawn) [Compound 16] | 7.57 µg/mL (≈ 15.8 µM) | 7.57 µg/mL (≈ 15.8 µM) | 1.51 µg/mL (≈ 3.16 µM) | –
COc1nc2ccc(-c3ccccc3)cc2cc1C(O)(CCCCCN(C)C)c1cccc2ccccc12 (stereo not drawn) [Compound 6] | 8.00 µg/mL (≈ 15.9 µM) | 10.07 µg/mL (≈ 20 µM) | 6.35 µg/mL (≈ 12.6 µM) | –
COc1nc2ccc(-c3cccs3)cc2cc1C(O)(CCCCCN(C)C)c1cccc2ccccc12 (stereo not drawn) [Compound 15] | 51.07 µg/mL (≈ 100 µM) | 51.07 µg/mL (≈ 100 µM) | 45.52 µg/mL (≈ 89.1 µM) | –
COc1ccccc1-c1ccc2nc(OC)c(C(O)(CCCCN(C)C)c3cccc4ccccc34)cc2c1 (stereo not drawn) [Compound 8] | 8.25 µg/mL (≈ 15.8 µM) | 10.39 µg/mL (≈ 20 µM) | 6.55 µg/mL (≈ 12.6 µM) | –
COc1nc2ccc(-c3ccoc3)cc2cc1C(O)(CCCCCN(C)C)c1cccc2ccccc12 (stereo not drawn) [Compound 12] | 1.56 µg/mL (≈ 3.15 µM) | 1.76 µg/mL (≈ 3.56 µM) | 1.56 µg/mL (≈ 3.15 µM) | –
COc1nc2ccc(-c3ccoc3)cc2cc1C(O)(CCCCN(C)C)c1cccc2ccccc12 (stereo not drawn) [Compound 11] | 7.62 µg/mL (≈ 15.9 µM) | 9.59 µg/mL (≈ 20 µM) | 7.62 µg/mL (≈ 15.9 µM) | –
COc1nc2ccc(Br)cc2cc1C(O)(CCCCCN(C)C)c1cccc2ccccc12 (stereo not drawn) [Compound 3] | 8.04 µg/mL (≈ 15.8 µM) | 10.13 µg/mL (≈ 20 µM) | 11.36 µg/mL (≈ 22.4 µM) | –
COc1ccccc1-c1ccc2nc(OC)c(C(O)(CCCCCN(C)C)c3cccc4ccccc34)cc2c1 (stereo not drawn) [Compound 9] | 8.47 µg/mL (≈ 15.8 µM) | 8.47 µg/mL (≈ 15.8 µM) | 8.47 µg/mL (≈ 15.8 µM) | –
COc1ccccc1-c1ccc2nc(OC)c(C(O)(CCCN(C)C)c3cccc4ccccc34)cc2c1 (stereo not drawn) [Compound 7] | 1.60 µg/mL (≈ 3.16 µM) | 1.8 µg/mL (≈ 3.55 µM) | 1.60 µg/mL (≈ 3.16 µM) | –
COc1nc2ccc(-c3ccccc3)cc2cc1C(O)(CCCCN(C)C)c1cccc2ccccc12 (stereo not drawn) [Compound 5] | 38.97 µg/mL (≈ 79.4 µM) | 49.07 µg/mL (≈ 100 µM) | 7.78 µg/mL (≈ 15.9 µM) | –
COc1nc2ccc(-c3cccnc3)cc2cc1C(O)(CCCCN(C)C)c1cccc2ccccc12 (stereo not drawn) [Compound 17] | 49.16 µg/mL (≈ 100 µM) | 49.16 µg/mL (≈ 100 µM) | 49.16 µg/mL (≈ 100 µM) | –
COc1nc2ccc(-c3ccoc3)cc2cc1C(O)(CCCN(C)C)c1cccc2ccccc12 (stereo not drawn) [Compound 10] | 1.66 µg/mL (≈ 3.56 µM) | 3.30 µg/mL (≈ 7.07 µM) | 1.48 µg/mL (≈ 3.17 µM) | –
